This passage reports IC50 results from US9040506B2, “7,11-methanocycloocta [B] quinoline derivative as highly functionalizable acetylcholinesterase inhibitors” (priority 2010, dated 2015).

One assay addresses rh-BuChE (Homo sapiens, UniProt P06276). Description: IC50 rh-BuChE. In kind it is biochemical.
For a further assay, the target named is rh-AChE (Homo sapiens, UniProt P22303). Description: biochemical.
The next assay concerns the target T1, erythrocyte h-AChE (Homo sapiens, UniProt P22303).
T1 construct: from tissue; host or cells: human erythrocytes
Briefly: IC50 erythrocyte h-AChE. In kind it is biochemical. The settings on record: read-out: IC50 erythrocyte h-AChE.

The term IC50 denotes the midpoint of a concentration-inhibition curve.

Structures can show the parent of a compound that is named as a salt. Where two headings read alike, the source gives them in different places.

T1 sequence (P22303 32-617 isoform P22303-2 limits assumed): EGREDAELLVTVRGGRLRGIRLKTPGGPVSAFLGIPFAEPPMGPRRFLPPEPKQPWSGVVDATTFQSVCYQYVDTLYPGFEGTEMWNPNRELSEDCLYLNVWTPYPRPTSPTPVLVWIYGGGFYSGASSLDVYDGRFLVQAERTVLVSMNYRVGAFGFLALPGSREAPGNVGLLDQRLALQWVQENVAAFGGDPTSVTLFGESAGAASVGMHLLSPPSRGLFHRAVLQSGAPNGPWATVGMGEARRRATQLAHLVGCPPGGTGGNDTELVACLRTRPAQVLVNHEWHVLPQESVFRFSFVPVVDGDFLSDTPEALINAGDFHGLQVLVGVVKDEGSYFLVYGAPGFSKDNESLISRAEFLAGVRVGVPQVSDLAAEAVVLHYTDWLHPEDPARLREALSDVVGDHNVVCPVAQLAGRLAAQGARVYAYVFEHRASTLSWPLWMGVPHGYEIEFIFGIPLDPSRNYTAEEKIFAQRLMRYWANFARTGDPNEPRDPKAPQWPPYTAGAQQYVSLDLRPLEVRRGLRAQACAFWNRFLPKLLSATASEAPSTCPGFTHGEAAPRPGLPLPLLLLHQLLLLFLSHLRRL
rh-AChE, sequence (P22303 32-614): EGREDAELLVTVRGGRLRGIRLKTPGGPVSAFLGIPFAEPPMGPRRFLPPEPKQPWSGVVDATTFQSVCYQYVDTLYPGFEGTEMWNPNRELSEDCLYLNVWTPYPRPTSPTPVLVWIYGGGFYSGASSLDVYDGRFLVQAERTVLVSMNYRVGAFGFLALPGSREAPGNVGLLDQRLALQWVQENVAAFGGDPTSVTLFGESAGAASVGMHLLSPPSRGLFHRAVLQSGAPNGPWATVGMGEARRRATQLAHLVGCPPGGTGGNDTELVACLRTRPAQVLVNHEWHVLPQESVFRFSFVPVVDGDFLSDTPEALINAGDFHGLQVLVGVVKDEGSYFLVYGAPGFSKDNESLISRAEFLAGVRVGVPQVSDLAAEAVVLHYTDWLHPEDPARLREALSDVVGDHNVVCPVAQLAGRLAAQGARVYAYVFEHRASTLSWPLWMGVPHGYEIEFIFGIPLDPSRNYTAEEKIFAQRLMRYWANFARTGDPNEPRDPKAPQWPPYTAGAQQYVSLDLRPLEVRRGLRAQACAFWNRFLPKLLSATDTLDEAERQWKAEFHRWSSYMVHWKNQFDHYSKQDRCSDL
rh-BuChE, sequence (P06276 29-602): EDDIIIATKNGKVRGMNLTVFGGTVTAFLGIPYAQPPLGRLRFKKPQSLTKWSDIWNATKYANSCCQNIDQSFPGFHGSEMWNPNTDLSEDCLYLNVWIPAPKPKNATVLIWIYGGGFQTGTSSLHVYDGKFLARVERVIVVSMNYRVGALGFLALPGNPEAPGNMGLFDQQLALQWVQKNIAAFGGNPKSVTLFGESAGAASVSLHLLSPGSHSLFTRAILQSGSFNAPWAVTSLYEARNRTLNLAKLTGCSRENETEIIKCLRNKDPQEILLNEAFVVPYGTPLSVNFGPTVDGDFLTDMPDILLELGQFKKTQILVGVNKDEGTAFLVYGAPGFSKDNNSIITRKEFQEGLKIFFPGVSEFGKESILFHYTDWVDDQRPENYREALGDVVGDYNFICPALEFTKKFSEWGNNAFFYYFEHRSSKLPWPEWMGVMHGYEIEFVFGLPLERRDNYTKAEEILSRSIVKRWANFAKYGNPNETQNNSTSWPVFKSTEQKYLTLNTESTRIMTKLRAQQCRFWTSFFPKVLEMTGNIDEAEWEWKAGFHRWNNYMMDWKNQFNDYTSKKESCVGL

Take `COc1cc2c(cc1OC)C(c1ccccc1)N(Cc1cn(CCCCC3=CC4Cc5nc6cc(Cl)ccc6c(N)c5C(C3)C4)nn1)CC2` (centres unmarked) [HUP32-PIQ1, 3-Chloro-9-(4-{4-[(6,7-dimethoxy-1-phenyl-3,4-dihydroisoquinolin-2(1H)-yl)methyl]-1H-1,2,3-triazol-1-yl}butyl)-6,7,10,11-tetrahydro-7,11-methanocycloocta[b]quinolin-12-amine Ditrifluoroacetic Acid]: the results for the concentration for half-maximal inhibition (IC50) on rh-BuChE (read-out: IC50 rh-BuChE) and on rh-AChE (read-out: IC50 rh-AChE) were 20.6 ± 0.2 nM and 3.31 ± 0.2 nM, respectively. On the same counts, the results for `COc1cc2c(cc1OC)C(c1ccccc1)N(CCCc1cn(CCCCC3=CC4Cc5nc6cc(Cl)ccc6c(N)c5C(C3)C4)nn1)CC2` (centres unmarked) [HUP32-PIQ3, 3-Chloro-9-(4-{4-[3-(6,7-dimethoxy-1-phenyl-3,4-dihydroisoquinolin-2(1H)-yl)propyl]-1H-1,2,3-triazol-1-yl}butyl)-6,7,10,11-tetrahydro-7,11-methanocycloocta[b]quinolin-12-amine Ditrifluoroacetic Acid] are 11.4 ± 0.6 nM and 0.61 ± 0.1 nM. The corresponding values for `COc1cc2c(cc1OC)C(c1ccccc1)N(CCCCc1cn(CCCCC3=CC4Cc5nc6cc(Cl)ccc6c(N)c5C(C3)C4)nn1)CC2` (centres unmarked) [HUP32-PIQ4, 3-Chloro-9-(4-{4-[4-(6,7-dimethoxy-1-phenyl-3,4-dihydroisoquinolin-2(1H)-yl)butyl]-1H-1,2,3-triazol-1-yl}butyl)-6,7,10,11-tetrahydro-7,11-methanocycloocta[b]quinolin-12-amine Ditrifluoroacetic Acid] are 9.5 ± 0.6 nM and 0.78 ± 0.1 nM. Take `CCOC(=O)CC1=CC2Cc3nc4cc(Cl)ccc4c(N)c3C(C1)C2` (centres unmarked) [HUP 1, Ethyl (12-Amino-3-chloro-6,7,10,11-tetrahydro-7,11-methanocycloocta[b]quinolin-9-yl)acetate]: the 50% inhibitory concentration (IC50) on rh-BuChE (read-out: IC50 rh-BuChE) was 137 ± 11 nM; on erythrocyte h-AChE, 38.3 nM; at rh-AChE (read-out: IC50 rh-AChE), 3.9 ± 0.5 nM. As for `C=CC1=CC2Cc3nc4cc(Cl)ccc4c(N)c3C(C1)C2` (centres unmarked) [HUP 3, 3-Chloro-9-vinyl-6,7,10,11-tetrahydro-7,11-methanocycloocta[b]quinolin-12-amine Trifluoroacetic Acid], the concentration for half-maximal inhibition (IC50) worked out at 180 ± 13 nM at rh-BuChE (read-out: IC50 rh-BuChE), 405 nM at erythrocyte h-AChE and 1.32 ± 0.17 nM at rh-AChE (read-out: IC50 rh-AChE). For the compound `CC(=O)OCCC1=CC2Cc3nc4cc(Cl)ccc4c(N)c3C(C1)C2` (centres unmarked) [HUP 4, 2-(12-Amino-3-chloro-6,7,10,11-tetrahydro-7,11-methanocycloocta[b]quinolin-9-yl)ethyl Acetate], the results for the half-maximal inhibitory concentration (IC50) on erythrocyte h-AChE and at rh-AChE (read-out: IC50 rh-AChE) were 12 nM and 1.44 ± 0.18 nM, respectively. For the compound `Nc1c2c(nc3cc(Cl)ccc13)CC1C=C(CCOC(=O)C(F)(F)F)CC2C1` (centres unmarked) [HUP 5, 2-(12-Amino-3-chloro-6,7,10,11-tetrahydro-7,11-methanocycloocta[b]quinolin-9-yl)ethyl Trifluoroacetate], the results for the 50% inhibitory concentration (IC50) on rh-BuChE (read-out: IC50 rh-BuChE), at erythrocyte h-AChE and on rh-AChE (read-out: IC50 rh-AChE) were 1360 nM, 27.5 nM and 1.69 ± 0.16 nM, respectively.

For `Nc1c2c(nc3cc(Cl)ccc13)CC1C=C(CCI)CC2C1` (centres unmarked) [HUP 7, 3-Chloro-9-(2-iodoethyl)-6,7,10,11-tetrahydro-7,11-methanocycloocta[b]quinolin-12-amine], the half-maximal inhibitory concentration (IC50) on rh-BuChE (read-out: IC50 rh-BuChE) is 141 ± 7 nM; at rh-AChE (read-out: IC50 rh-AChE), 2.7 ± 0.82 nM.

For the compound `N#CCCC1=CC2Cc3nc4cc(Cl)ccc4c(N)c3C(C1)C2` (centres unmarked) [HUP 8, 3-(12-Amino-3-chloro-6,7,10,11-tetrahydro-7,11-methanocycloocta[b]quinolin-9-yl)propanenitrile Trifluoroacetic Acid], the results for the IC50 at rh-BuChE (read-out: IC50 rh-BuChE) and at rh-AChE (read-out: IC50 rh-AChE) were 514 ± 58 nM and 3.15 ± 0.42 nM, respectively.

As to `Nc1c2c(nc3cc(Cl)ccc13)CC1C=C(CCF)CC2C1` (centres unmarked) [HUP 10, 3-Chloro-9-(2-fluoroethyl)-6,7,10,11-tetrahydro-7,11-methanocycloocta[b]quinolin-12-amine], the results for the half-maximal inhibitory concentration (IC50) at rh-BuChE (read-out: IC50 rh-BuChE) and on rh-AChE (read-out: IC50 rh-AChE) were 522 ± 120 nM and 4.16 ± 0.79 nM, respectively. Compound `Nc1c2c(nc3cc(Cl)ccc13)CC1C=C(CC(=O)O)CC2C1` (centres unmarked) [HUP 11, 12-Amino-3-chloro-9-carboxymethyl-6,7,10,11-tetrahydro-7,11 methanocycloocta[b]quinoline Hydrochloride] yielded a concentration for half-maximal inhibition (IC50) at rh-AChE of 5.3 ± 1.1 nM. Take `[N-]=[N+]=NCCC1=CC2Cc3nc4cc(Cl)ccc4c(N)c3C(C1)C2` (centres unmarked) [HUP 12, 9-(2-Azidoethyl)-3-chloro-6,7,10,11-tetrahydro-7,11-methanocycloocta[b]quinolin-12-amine]: the results for the IC50 on rh-BuChE (read-out: IC50 rh-BuChE) and at rh-AChE (read-out: IC50 rh-AChE) were 522 ± 120 nM and 5.56 ± 0.82 nM, respectively.

On to `CS(=O)(=O)OCCC1=CC2Cc3nc4cc(Cl)ccc4c(N)c3C(C1)C2` (centres unmarked) [HUP 13, 2-(12-Amino-3-chloro-6,7,10,11-tetrahydro-7,11-methanocycloocta[b]quinolin-9-yl) Ethyl Methanesulfonate], for which the IC50 on rh-BuChE (read-out: IC50 rh-BuChE) was found to be 415 ± 97 nM; at rh-AChE (read-out: IC50 rh-AChE), 8.5 ± 1.1 nM.

With `NNCCC1=CC2Cc3nc4cc(Cl)ccc4c(N)c3C(C1)C2` (centres unmarked) [HUP 14, 3-Chloro-9-(2-hydrazinoethyl)-6,7,10,11-tetrahydro-7,11-methanocyclo octa[b]quinolin-12-amine Ditrifluoroacetic Acid], the IC50 is 668 ± 110 nM at rh-BuChE and 9.5 ± 2.7 nM at rh-AChE (read-out: IC50 rh-AChE). Consider `Nc1c2c(nc3cc(Cl)ccc13)CC1C=C(CCNO)CC2C1` (centres unmarked) [HUP 15, 3-Chloro-9-[2-(hydroxyamino)ethyl]-6,7,10,11-tetrahydro-7,11-methano cycloocta[b]quinolin-12-amine Ditrifluoroacetic Acid], for which the half-maximal inhibitory concentration (IC50) at rh-AChE (read-out: IC50 rh-AChE) is 18.5 ± 2.2 nM. Turning to `CC(C)(C)OC(=O)ON(CCC1=CC2Cc3nc4cc(Cl)ccc4c(N)c3C(C1)C2)C(=O)OC(C)(C)C` (centres unmarked) [HUP 16, Tert-butyl[2-(12-amino-3-chloro-6,7,10,11-tetrahydro-7,11-methanocycloocta[b]quinolin-9-yl)ethyl][(tert-butoxycarbonyl)oxy]carbamate], the IC50 at rh-BuChE (read-out: IC50 rh-BuChE) stood at 421 ± 72 nM; on rh-AChE (read-out: IC50 rh-AChE) it was 14.8 ± 3.2 nM. On the same counts, the results for `NC(=O)OCCC1=CC2Cc3nc4cc(Cl)ccc4c(N)c3C(C1)C2` (centres unmarked) [HUP 17, 2-(12-Amino-3-chloro-6,7,10,11-tetrahydro-7,11-methanocycloocta[b]quinolin-9-yl)ethyl Carbamate Trifluoroacetic Acid] are 413 ± 40 nM and 18.5 ± 2.2 nM. Consider `CN(C)C(=O)CC1=CC2Cc3nc4cc(Cl)ccc4c(N)c3C(C1)C2` (centres unmarked) [HUP 19, 2-(12-Amino-3-chloro-6,7,10,11-tetrahydro-7,11-methanocycloocta[b]quinolin-9-yl)-N,N-dimethylacetamide Trifluoroacetic Acid], for which the IC50 came to 2760 nM on rh-BuChE (read-out: IC50 rh-BuChE) and 26.3 ± 1.7 nM on rh-AChE (read-out: IC50 rh-AChE).

Turning to `NC(=O)CC1=CC2Cc3nc4cc(Cl)ccc4c(N)c3C(C1)C2` (centres unmarked) [HUP 20, 2-(12-Amino-3-chloro-6,7,10,11-tetrahydro-7,11-methanocycloocta[b]quinolin-9-yl)acetamide Trifluoroacetic Acid], the half-maximal inhibitory concentration (IC50) at rh-AChE (read-out: IC50 rh-AChE) turned out to be 29.3 ± 3.7 nM. `CN(C)CCC1=CC2Cc3nc4cc(Cl)ccc4c(N)c3C(C1)C2` (centres unmarked) [HUP 21, 3-Chloro-9-[2-(dimethylamino)ethyl]-6,7,10,11-tetrahydro-7,11-methano cycloocta[b]quinolin-12-amine Ditrifluoroacetic Acid]: the IC50 was determined as 2910 nM at rh-BuChE and 97 ± 10 nM on rh-AChE (read-out: IC50 rh-AChE). Turning to `COC(=O)c1cn(CCC2=CC3Cc4nc5cc(Cl)ccc5c(N)c4C(C2)C3)nn1` (centres unmarked) [HUP 22, Methyl 1-[2-(12-amino-3-chloro-6,7,10,11-tetrahydro-7,11-methanocycloocta[b]quinolin-9-yl)ethyl]-1H-1,2,3-triazole-4-carboxylate], the IC50 on rh-AChE (read-out: IC50 rh-AChE) amounted to 130 ± 15 nM.

In the case of `Nc1c2c(nc3cc(Cl)ccc13)CC1C=C(CCn3cc(CO)nn3)CC2C1` (centres unmarked) [HUP 23, {1-[2-(12-Amino-3-chloro-6,7,10,11-tetrahydro-7,11-methanocycloocta[b]quinolin-9-yl)ethyl]-1H-1,2,3-triazol-4-yl}methanol Trifluoroacetic Acid], the IC50 at rh-AChE (read-out: IC50 rh-AChE) was 210 ± 28 nM. As for `C[N+](C)(C)CCC1=CC2Cc3nc4cc(Cl)ccc4c(N)c3C(C1)C2` (centres unmarked) [HUP 25, 2-(12-Amino-3-chloro-6,7,10,11-tetrahydro-7,11-methanocycloocta[b]quinolin-9-yl)-N,N,N-trimethylethanaminium Ditrifluoroacetic Acid], the half-maximal inhibitory concentration (IC50) on rh-AChE (read-out: IC50 rh-AChE) turned out to be 262 ± 22 nM. On to `Nc1c2c(nc3cc(Cl)ccc13)CC1C=C(CCC(CO)CO)CC2C1` (centres unmarked) [HUP 28, 2-[2-(12-Amino-3-chloro-6,7,10,11-tetrahydro-7,11-methanocycloocta[b]quinolin-9-yl)ethyl]propane-1,3-diol Trifluoroactic Acid], for which the IC50 on erythrocyte h-AChE turned out to be 40.2 nM; at rh-AChE (read-out: IC50 rh-AChE), 24.7 ± 1.2 nM.

For `Nc1c2c(nc3cc(Cl)ccc13)CC1C=C(CCCCn3cc(COC(=O)C(F)(F)F)nn3)CC2C1` (centres unmarked) [HUP 35, {1-[4-(12-Amino-3-chloro-6,7,10,11-tetrahydro-7,11-methanocycloocta[b]quinolin-9-yl)butyl]-1H-1,2,3-triazol-4-yl}methyl Trifluoroacetate], the IC50 at erythrocyte h-AChE came to 69.8 nM; at rh-AChE (read-out: IC50 rh-AChE) it was 34.6 ± 2.6 nM. As to `C=C1c2nc3cc(Cl)ccc3c(N)c2C2CC(CCCC(=O)OCC)=CC1C2` (centres unmarked) [HUP 36, Ethyl 4-(12-Amino-3-chloro-6-methylene-6,7,10,11-tetrahydro-7,11-methanocycloocta[b]quinolin-9-yl)butanoate], the IC50 on rh-AChE (read-out: IC50 rh-AChE) was determined as 90.6 ± 8.4 nM. As for `C=C1c2nc3cc(Cl)ccc3c(N)c2C2CC(CCCCO)=CC1C2` (centres unmarked) [HUP 37, 4-(12-Amino-3-chloro-6-methylene-6,7,10,11-tetrahydro-7,11-methanocycloocta[b]quinolin-9-yl)butan-1-ol Trifluoroacetic Acid], the 50% inhibitory concentration (IC50) at rh-AChE (read-out: IC50 rh-AChE) was determined as 256 ± 34 nM. `Nc1c2c(nc3ccccc13)CC1C=C(CCCCn3cc(CO)nn3)CC2C1` (centres unmarked) [HUP 38, {1-[4-(12-Amino-6,7,10,11-tetrahydro-7,11-methanocycloocta[b]quinolin-9-yl)butyl]-1H-1,2,3-triazol-4-yl}methanol Trifluoroacetic Acid]: the IC50 on rh-BuChE (read-out: IC50 rh-BuChE) is 357 ± 16 nM; on rh-AChE (read-out: IC50 rh-AChE) it was 94.1 ± 2.8 nM. The corresponding values for `CS(=O)(=O)OCCC1=CC2Cc3nc4ccccc4c(N)c3C(C1)C2` (centres unmarked) [HUP 39, 2-(12-Amino-6,7,10,11-tetrahydro-7,11-methanocycloocta[b]quinolin-9-yl) Ethyl Methanesulfonate] are 171 ± 4 nM and 149 ± 6 nM.
